Common to all, as to format: functional
In one assay the test system is Shigella boydii. Kind of assay: Antimicrobial activity against Shigella boydii by disk diffusion method.
For another assay, the system named is Shigella sonnei. Kind of assay: Antimicrobial activity against Shigella sonnei by disk diffusion method.
A further assay deals with Bacillus subtilis. Kind of assay: Antimicrobial activity against Bacillus subtilis by disk diffusion method.
Another assay has as its system Shigella dysenteriae. Kind of assay: Antimicrobial activity against Shigella shigae by disk diffusion method.
A further assay concerns Enterococcus faecalis. Kind of assay: Antimicrobial activity against sStreptococcus faecalis by disk diffusion method.
The subject of another assay is Bacillus cereus. Kind of assay: Antimicrobial activity against Bacillus cereus by disk diffusion method.
The next assay concerns Staphylococcus aureus. Kind of assay: Antimicrobial activity against Staphylococcus aureus by disk diffusion method.

Turning to `C=C1CC[C@H]2[C@@]3(C)CCC[C@]2(C(=O)OC3)[C@H]1CC(=O)c1ccoc1`, the “inhibition zone (IZ)” value in the assay on Shigella boydii is recorded as 8 mm; in the assay with Shigella sonnei, 10 mm; in the assay on Bacillus subtilis, 16 mm; in the assay with Shigella dysenteriae it was 12 mm; with Enterococcus faecalis it was 12 mm; with Bacillus cereus, 13 mm. The “inhibition zone (IZ)” value in the assay on Staphylococcus aureus was found to be 14 mm.
As for `C[C@H]1c2cccc(O)c2C(=O)C2=C(O)[C@]3(O)C(=O)C(C(N)=O)=C(O)[C@@H](N(C)C)[C@@H]3[C@@H](O)[C@@H]21.O` [DOXYCYCLINE], the “inhibition zone (IZ)” value was determined as 38 mm in the assay with Shigella boydii; 30 mm with Shigella sonnei; 34 mm with Bacillus subtilis; 37 mm in the assay on Shigella dysenteriae; 35 mm with Enterococcus faecalis; 31 mm in the assay on Bacillus cereus. The “inhibition zone (IZ)” value in the assay on Staphylococcus aureus was 35 mm.

The values are drawn from ChEMBL document CHEMBL1159202, “A furanoid labdane diterpene from Potamogeton nodosus” (1998).
